Data on three compounds can be found in publication PMC6442474 (Planta medica, 2014).

Sequence of tau (2N4R) (P10636 1-441 isoform P10636-8): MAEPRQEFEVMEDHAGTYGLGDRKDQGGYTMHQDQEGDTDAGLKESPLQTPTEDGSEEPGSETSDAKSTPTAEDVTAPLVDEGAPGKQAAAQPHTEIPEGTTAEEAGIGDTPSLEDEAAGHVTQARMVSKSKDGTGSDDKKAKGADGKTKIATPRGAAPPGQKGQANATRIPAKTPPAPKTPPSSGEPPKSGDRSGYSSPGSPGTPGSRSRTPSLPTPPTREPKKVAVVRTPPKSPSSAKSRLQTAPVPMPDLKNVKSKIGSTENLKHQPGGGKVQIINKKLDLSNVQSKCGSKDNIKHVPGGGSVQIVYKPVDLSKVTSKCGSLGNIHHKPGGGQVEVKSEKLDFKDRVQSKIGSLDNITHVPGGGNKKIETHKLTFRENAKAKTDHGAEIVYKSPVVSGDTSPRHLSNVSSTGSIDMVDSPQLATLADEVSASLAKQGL

This assay addresses tau (2N4R) (Homo sapiens, UniProt P10636). In words: arachidonic acid-induced tau aggregation, filter trap assay dose-response. Format: biochemical.
What is called IC50 is the midpoint of a concentration-inhibition curve. Read a low IC50 as greater potency. In the case of `O=C1c2cc(CO)cc(O)c2C(=O)c2c1cc(O)c(O)c2O` [2,ω-dihydroxyemodin], the IC50 was determined as 205 ± 28 µM.
The result for `O=C1c2c(cc(CO)c(O)c2O)C(=O)c2c(O)c(O)cc(O)c21` [asperthecin] reads 39 ± 2 µM.
On to asperbenzaldehyde, for which the IC50 was 177 ± 103 µM.
